Where “and” joins values, the source holds several entries; their conditions need not be identical. Equal entries are not always repeated. Non-standard residues stand in square brackets, D forms with d. No end group written: not given here. *: point of attachment. Biotin = O=C1N[C@H]2[C@H](CS[C@H]2CCCCC(=O)*)N1; pGlu = O=C1CC[C@@H](C(=O)O)N1
Legend:
GnRH-specific B cells [1] = test: Staining of specific B cells with tetramers made from C-term, N-term or middle biotinylated GnRH; assay type: cell-based, mice; conditions: middle- or C-terminally biotinylated GnRH (FIG. 3B)
Description: FIG. 3B: Specific B cells are recognized only by C-term tetramer. Peptide-tetrameric molecules made with different biotinylated GnRH: C-term, N-term, and middle biotinylated peptides.
Tetrameric molecules were produced by mixing equal volumes of C-biotinylated, middle biotinylated or N-biotinylated GnRH at 200 μM (Pepscan Systems) with R-phycoerythrin (PE)-labeled neutravidin at 3.3 μM (PE-NA, Molecular Probes, Eugene, Oreg.), or allophycocyanin (APC)-labeled streptavidin at 6.1 μM (APC-SA, Molecular Probes). Each mixture was incubated at 4° C. for at least 12 hours. Then, tetramers were separated from non-complexed peptide by gel filtration using Bio-Gel P-30 spin columns (Bio-Rad, Hercules, Calif.).
As a further specificity test, we produced tetramers using peptides that were N-, middle-, or C-terminally labeled.

hCG-specific B cells = test: Double-tetramer (PE/APC hCG-tetramer) flow cytometry of rat lymphocytes after immunization with CTP-hCG; assay type: in vivo; conditions: rat spleen lymphocytes, days 10 to 12 after one i.p. immunization; hCG-tetramer double-staining; one value per rat (nos. 1-3)
Description: Six eight-week-old rats were used and were treated according to the ethical guidelines of our institutions. Rats (nos. 1, 2, and 3) were immunized intraperitoneally on day 0 with 100 μg C-Terminal Peptide (CTP), which comprises amino acid position 109-145 of hCG, coupled with 300 μg KLH, in Complete Freunds Adjuvant (CFA). The accession number of hCG is p01233, the Swiss prot. entry name is CGHB_HUMAN.
Control rats (nos. 4, 5, and 6) were immunized with KLH in CFA. On days 10 to 12, the animals were sacrificed and spleens were harvested. All animal experiments were performed with permission from the local ethical committee (DEC).
Cell suspensions of splenocytes were obtained by mechanical disruption of the spleens. Lymphocytes were collected using a Ficoll gradient. The resulting single-cell suspensions were stained with hCG-tetramers at optimal dilution. Staining was conducted at 4° C. in two steps. First, cells were stained with the PE-labeled tetramer of hCG for one hour, using the empirically determined optimal concentration. Cells were then washed three times with FACS buffer. Next, cells were stained with the APC-labeled tetramer of hCG and washed again. […]
Lymphocytes were stained with hCG-tetramers. […] Only […] detected as a responder to the immunization based on specific B-cell responses.

GnRH-specific B cells [2] = test: Inhibition of GnRH-tetramer staining of specific B cells by pre-incubation with unlabeled GnRH; assay type: cell-based, mice
Description: FIG. 3A: Unlabeled GnRH or Gastrin is able to inhibit the peptide-tetrameric molecule staining of the specific B cells. […] Splenocytes were pre-incubated with unlabeled GnRH or Gastrin, followed by incubation with labeled tetramers and anti-CD19 and anti-CD3 antibodies. Three doses of unlabeled antigens were used: 2 mM, 20 μM and 0.2 μM.
Lymphocytes were preincubated with unlabeled peptide followed by incubation with labeled tetramers, CD19 and CD3e antibodies.

GnRH = conditions: cited from earlier work; for biological effect: peptide conjugated to a carrier protein (Meloen et al., 1994; Oonk et al., 1998); for immunogenicity: peptide conjugated to a carrier protein, resulting in GnRH-neutralizing antibodies (Meloen et al., 1994; Oonk et al., 1998)

With “C-term biotinylated GnRH tetrameric: C-biotinylated GnRH complexed with PE-labeled neutravidin or APC-labeled streptavidin (QHWSYGLRPG-biotin; ends and bridges not checked; also: tetramer with PE-labeled neutravidin or APC-labeled streptavidin; UniProt P01148 24-33, looked up)” the “detection of specific B cells by the tetramer” value (“detection of specific B cells” for short) (GnRH-specific B cells [1]) was “able to detect the specific B cells”.
With “CTP-KLH/CFA: C-Terminal Peptide, amino acid position 109-145 of hCG, coupled with KLH, in Complete Freunds Adjuvant (TCDDPRFQDSSSSKAPPPSLPSPSRLPGPSDTPILPQ; also: coupled with KLH, in Complete Freunds Adjuvant; UniProt P0DN86 129-165, looked up, fragment)” the “Pos. B cells per 1 × 10^6 cells in Facs” value (hCG-specific B cells) was 61 per 1 × 10^6 cells and 47 per 1 × 10^6 cells and 136 per 1 × 10^6 cells.
With “N-term: tetramer of N-biotinylated GnRH with PE-labeled neutravidin or APC-labeled streptavidin (Biotin-QHWSYGLRPG; ends and bridges not checked; also: tetramer with PE-labeled neutravidin or APC-labeled streptavidin; UniProt P01148 24-33, looked up)” the “detection of specific B cells” value (GnRH-specific B cells [1]) was “Only the C-term peptide was able to detect the specific cells”.
In the case of “Unlabeled GnRH: Gonadotrophin-releasing hormone, a decapeptide, used unlabeled as competitor of tetramer staining (QHWSYGLRPG; ends and bridges not checked; UniProt P01148 24-33, looked up)”, the “inhibition of tetramer staining, dose dependence” value (GnRH-specific B cells [2]; lymphocytes preincubated with unlabeled peptide, then labeled tetramers (FIG. 3A)) is reported as “inhibited by inclusion of unlabeled peptide in a dose-dependent manner” and the “inhibition of peptide-tetramer staining of specific B cells” value (GnRH-specific B cells [2]; splenocytes pre-incubated with unlabeled antigen, higher dose of 2 mM, 20 μM and 0.2 μM) is reported as “nearly abolished”.
For “dimerized form of pEHWSYkLRPGQHWSYkLRPGC [TDK]”, the biological effect (GnRH) is listed as “full biological effect in all treated animals” and the immunogenicity (GnRH) is listed as “highly immunogenic”.
With “middle biotinylated peptides: tetramer of middle biotinylated GnRH with PE-labeled neutravidin or APC-labeled streptavidin (QHWSYGLRPG; ends and bridges not checked; also: middle biotinylated, tetramer with PE-labeled neutravidin or APC-labeled streptavidin; UniProt P01148 24-33, looked up)” the “detection of specific B cells” value (GnRH-specific B cells [1]) was “Only the C-term peptide was able to detect the specific cells”.
For “pEHWSYGLRPGQHWSYGLRPGC ([pGlu]HWSYGLRPGQHWSYGLRPGC) [GnRH tandem]”, the biological effect (GnRH) is listed as “full biological effect in all treated animals” and the immunogenicity (GnRH) is listed as “highly immunogenic”.
